Test results from paper PMC9270327 (Communications Biology, 2022).
Where “and” joins values, the source holds several entries; their conditions need not be identical. Equal values may be shown once. Where a name gives a salt, the structure may show the parent alone. Read-outs that look alike come from different tables or passages of the source.

Legend:
[1] = system: SARS-CoV-2 Wuhan-Hu-1, Caco-2 cells; type: cell-based
[2] = molecular target: T1, TMPRSS2 expressed in HEK293T cells (Homo sapiens, UniProt O15393); test: Inhibition of cellular TMPRSS2 activity on HEK293T cells transiently expressing TMPRSS2; type: cell-based; conditions: 2 h, corrected for mock-transfected cells
T1 construct: host or cells: HEK293T (ATCC)
Procedure: In total, 10,000 Caco-2 cells (ATCC) in 100 µL EMEM medium supplemented with 10% FBS, 100 U/mL penicillin, […] streptomycin, and 2 mM glutamine (all Invitrogen, Germany) were seeded per well in a 96-well plate and incubated at 37 °C for 4 days until full confluency of the cells. The cells were washed two times with PBS and EMEM medium without FBS was added. […] The fluorescence intensity was measured as described above. In all, 20,000 HEK293T cells (ATCC) were seeded in 100 µL DMEM supplemented with 10% FBS, 100 U/mL penicillin, […] streptomycin, and 2 mM glutamine. […] […] […] Fluorescence intensity was measured after 2 h at 37 °C as described above.

[3] = molecular target: TMPRSS2 (Homo sapiens, UniProt O15393); test: Plasma stability: residual TMPRSS2 inhibition after incubation in human plasma
Procedure: The activity of the compounds against the recombinant human enzymes was determined in enzyme inhibition assays. […] The measurements were performed on a Tecan infinite® M1000 and the fluorescence intensity was measured by exciting the AMC fluorophore at 380 nm wavelength and recording emission at 460 nm wavelength. […] Fluorescence intensities and absorption were measured every 2 min for 2 h or as endpoint after 2 h. […] To determine the IC50 values, the concentration-response data were plotted with the program GraphPad prism version 8.4.2 (San Diego, California) and a nonlinear regression fit with the equation [Inhibitor] vs. normalized response was applied. The inhibitory constant Ki was calculated from the IC50 values using the Cheng–Prusoff equation (Ki = IC50/[S]/KM) for competitive reversible inhibitors[66].
The stability of the inhibitors was measured according to a modified procedure from ref. [67]. […] At indicated timepoints, 100 µL samples were taken and mixed with 200 µL of ethanol to precipitate proteins. […] The supernatant was aspirated and analyzed using analytical HPLC. The residual inhibitory constants Ki after incubation was assessed by mixing serial dilutions of the inhibitor with recombinant TMPRSS2 as described above.
Shown are the means ± SD of n=1 experiment performed in triplicates.

[4] = molecular target: cellular TMPRSS2 activity, Caco-2 cells (Homo sapiens, UniProt O15393); conditions: normalized, 0 nM = 100
Procedure: In total, 10,000 Caco-2 cells (ATCC) in 100 µL EMEM medium supplemented with 10% FBS, 100 U/mL penicillin, […] streptomycin, and 2 mM glutamine (all Invitrogen, Germany) were seeded per well in a 96-well plate and incubated at 37 °C for 4 days until full confluency of the cells. The cells were washed two times with PBS and EMEM medium without FBS was added. […] The fluorescence intensity was measured as described above. In all, 20,000 HEK293T cells (ATCC) were seeded in 100 µL DMEM supplemented with 10% FBS, 100 U/mL penicillin, […] streptomycin, and 2 mM glutamine. […] After 14 h, transfection mix was removed from the cells and 80 µL fresh medium without FBS and 10 µL inhibitors were added (final concentration 50 µM). […] Fluorescence intensity was measured after 2 h at 37 °C as described above.

[5] = system: lentiviral pseudoparticles carrying SARS-CoV-2 Delta (B.1.617.2) spike, Caco-2 cells; type: cell-based; conditions: for SARS-CoV-2 spike driven entry, Mean (0 nM = 100): Fig. 5d
[6] = system: lentiviral pseudoparticles carrying SARS-CoV-2 Alpha (B.1.1.7) spike, Caco-2 cells; type: cell-based; conditions: for SARS-CoV-2 spike driven entry, Mean (0 nM = 100): Fig. 5b
[7] = system: lentiviral pseudoparticles carrying SARS-CoV-2 Omicron BA.1 (B.1.1.529) spike, Caco-2 cells; type: cell-based
[8] = system: SARS-CoV-2 Beta (B.1.351), Caco-2 cells; type: cell-based
[9] = system: lentiviral pseudoparticles carrying SARS-CoV-2 Wuhan-Hu-1 spike, Caco-2 cells; type: cell-based

Sequence of TMPRSS2 (O15393 whole entry): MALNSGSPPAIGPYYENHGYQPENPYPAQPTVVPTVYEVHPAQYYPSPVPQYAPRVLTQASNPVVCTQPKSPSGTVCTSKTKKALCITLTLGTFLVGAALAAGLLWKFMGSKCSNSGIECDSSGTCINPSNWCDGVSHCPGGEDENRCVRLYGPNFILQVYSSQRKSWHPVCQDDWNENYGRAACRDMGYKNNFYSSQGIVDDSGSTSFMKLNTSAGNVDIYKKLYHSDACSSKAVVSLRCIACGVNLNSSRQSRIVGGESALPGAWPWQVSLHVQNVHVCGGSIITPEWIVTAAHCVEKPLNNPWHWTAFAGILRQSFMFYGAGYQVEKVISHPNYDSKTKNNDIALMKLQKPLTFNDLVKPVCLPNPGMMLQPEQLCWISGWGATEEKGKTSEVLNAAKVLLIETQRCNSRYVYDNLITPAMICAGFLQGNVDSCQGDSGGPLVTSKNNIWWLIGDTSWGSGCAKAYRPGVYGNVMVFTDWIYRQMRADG
T1 sequence (O15393 whole entry): as above
Sequence of cellular TMPRSS2 activity, Caco-2 cells (O15393 whole entry): as above

CN(C)C(=O)COC(=O)Cc1ccc(OC(=O)c2ccc(NC(=N)N)cc2)cc1 [CM, camostat mesylate, reference compound]
IC50 ([1]; read-out: IC50 SARS-CoV-2 Wuhan-Hu-1): 3620 nM | IC50 ([1]; read-out: IC50 SARS-CoV-2 Wuhan-Hu-1 (text)): 3600 nM | normalized fluorescence intensity, HEK293T TMPRSS2, Mean (Fig. 4b) ([2]; 0.5 nM): 47.42 | normalized fluorescence intensity, HEK293T TMPRSS2, Mean (Fig. 4b) ([2]; 5 nM): 43.185 | normalized fluorescence intensity, HEK293T TMPRSS2, Mean (Fig. 4b) ([2]; 50 nM): 9.45 | normalized fluorescence intensity, HEK293T TMPRSS2, Mean (Fig. 4b) ([2]; 500 nM): 8.435 | normalized fluorescence intensity, HEK293T TMPRSS2, Mean (Fig. 4b) ([2]; 5000 nM): 0.32 | normalized fluorescence intensity, HEK293T TMPRSS2, Mean (Fig. 4b) ([2]; 50000 nM): -3.52 | TMPRSS2 activity, Mean (0 nM = 100) ([3]; inhibitor 0.0167 nM, 0 min in plasma): 112.439 | TMPRSS2 activity, Mean (0 nM = 100) ([3]; inhibitor 0.0167 nM, 30 min in plasma): 99.4869 | TMPRSS2 activity, Mean (0 nM = 100) ([3]; inhibitor 0.0167 nM, 60 min in plasma): 94.1158 | TMPRSS2 activity, Mean (0 nM = 100) ([3]; inhibitor 0.0167 nM, 120 min in plasma): 100.839 | TMPRSS2 activity, Mean (0 nM = 100) ([3]; inhibitor 0.0167 nM, 24 h in plasma): 102.049 | TMPRSS2 activity, Mean (0 nM = 100) ([3]; inhibitor 0.0167 nM, 10 d in plasma): 98.7798 | TMPRSS2 activity, Mean (0 nM = 100) ([3]; inhibitor 0.0167 nM, positive ctrl): 95.8208 | TMPRSS2 activity, Mean (0 nM = 100) ([3]; inhibitor 0.167 nM, 0 min in plasma): 118.068 | TMPRSS2 activity, Mean (0 nM = 100) ([3]; inhibitor 0.167 nM, 30 min in plasma): 99.3363 | TMPRSS2 activity, Mean (0 nM = 100) ([3]; inhibitor 0.167 nM, 60 min in plasma): 90.9592 | TMPRSS2 activity, Mean (0 nM = 100) ([3]; inhibitor 0.167 nM, 120 min in plasma): 99.9584 | TMPRSS2 activity, Mean (0 nM = 100) ([3]; inhibitor 0.167 nM, 24 h in plasma): 103.994 | TMPRSS2 activity, Mean (0 nM = 100) ([3]; inhibitor 0.167 nM, 10 d in plasma): 99.2067 | TMPRSS2 activity, Mean (0 nM = 100) ([3]; inhibitor 0.167 nM, positive ctrl): 72.6812 | TMPRSS2 activity, Mean (0 nM = 100) ([3]; inhibitor 1.665 nM, 0 min in plasma): 103.981 | TMPRSS2 activity, Mean (0 nM = 100) ([3]; inhibitor 1.665 nM, 30 min in plasma): 95.5323 | TMPRSS2 activity, Mean (0 nM = 100) ([3]; inhibitor 1.665 nM, 60 min in plasma): 85.541 | TMPRSS2 activity, Mean (0 nM = 100) ([3]; inhibitor 1.665 nM, 120 min in plasma): 96.8319 | TMPRSS2 activity, Mean (0 nM = 100) ([3]; inhibitor 1.665 nM, 24 h in plasma): 101.166 | TMPRSS2 activity, Mean (0 nM = 100) ([3]; inhibitor 1.665 nM, 10 d in plasma): 96.8623 | TMPRSS2 activity, Mean (0 nM = 100) ([3]; inhibitor 1.665 nM, positive ctrl): 21.364 | TMPRSS2 activity, Mean (0 nM = 100) ([3]; inhibitor 16.65 nM, 0 min in plasma): 71.7511 | TMPRSS2 activity, Mean (0 nM = 100) ([3]; inhibitor 16.65 nM, 30 min in plasma): 65.1615 | TMPRSS2 activity, Mean (0 nM = 100) ([3]; inhibitor 16.65 nM, 60 min in plasma): 67.6129 | TMPRSS2 activity, Mean (0 nM = 100) ([3]; inhibitor 16.65 nM, 120 min in plasma): 74.7383 | TMPRSS2 activity, Mean (0 nM = 100) ([3]; inhibitor 16.65 nM, 24 h in plasma): 100.72 | TMPRSS2 activity, Mean (0 nM = 100) ([3]; inhibitor 16.65 nM, 10 d in plasma): 95.3646 | TMPRSS2 activity, Mean (0 nM = 100) ([3]; inhibitor 16.65 nM, positive ctrl): 5.9227 | TMPRSS2 activity, Mean (0 nM = 100) ([3]; inhibitor 166.5 nM, 0 min in plasma): 5.478 | TMPRSS2 activity, Mean (0 nM = 100) ([3]; inhibitor 166.5 nM, 30 min in plasma): 3.6809 | TMPRSS2 activity, Mean (0 nM = 100) ([3]; inhibitor 166.5 nM, 60 min in plasma): 3.225 | TMPRSS2 activity, Mean (0 nM = 100) ([3]; inhibitor 166.5 nM, 120 min in plasma): 7.418 | TMPRSS2 activity, Mean (0 nM = 100) ([3]; inhibitor 166.5 nM, 24 h in plasma): 28.8196 | TMPRSS2 activity, Mean (0 nM = 100) ([3]; inhibitor 166.5 nM, 10 d in plasma): 97.9296 | TMPRSS2 activity, Mean (0 nM = 100) ([3]; inhibitor 166.5 nM, positive ctrl): 2.192 | TMPRSS2 activity, Mean (0 nM = 100) ([3]; inhibitor 1665 nM, 0 min in plasma): 4.824 | TMPRSS2 activity, Mean (0 nM = 100) ([3]; inhibitor 1665 nM, 30 min in plasma): 0.6431 | TMPRSS2 activity, Mean (0 nM = 100) ([3]; inhibitor 1665 nM, 60 min in plasma): 1.811 | TMPRSS2 activity, Mean (0 nM = 100) ([3]; inhibitor 1665 nM, 120 min in plasma): 6.253 | TMPRSS2 activity, Mean (0 nM = 100) ([3]; inhibitor 1665 nM, 24 h in plasma): 5.605 | TMPRSS2 activity, Mean (0 nM = 100) ([3]; inhibitor 1665 nM, 10 d in plasma): 88.1928 | TMPRSS2 activity, Mean (0 nM = 100) ([3]; inhibitor 1665 nM, positive ctrl): 0.4038 | cellular protease activity on Caco-2 cells, Mean (Fig. 4a) ([4]; 0.1 nM): 103.704 | cellular protease activity on Caco-2 cells, Mean (Fig. 4a) ([4]; 1 nM): 98.7654 | cellular protease activity on Caco-2 cells, Mean (Fig. 4a) ([4]; 10 nM): 63.4921 | cellular protease activity on Caco-2 cells, Mean (Fig. 4a) ([4]; 100 nM): 38.9771 | cellular protease activity on Caco-2 cells, Mean (Fig. 4a) ([4]; 1000 nM): 21.8695 | cellular protease activity on Caco-2 cells, Mean (Fig. 4a) ([4]; 10000 nM): 6.173 | cellular protease activity on Caco-2 cells, Mean (Fig. 4a) ([4]; 100000 nM): 1.764 | IC50 ([5]; Caco-2 cells, luciferase 2 days post transduction, read-out: IC50 pseudotyped lentivirus Delta): 85.5 nM | SARS-CoV-2 spike driven entry, Mean (0 nM = 100) ([5]; compound 3.2 nM): 83.3031 | SARS-CoV-2 spike driven entry, Mean (0 nM = 100) ([5]; compound 16 nM): 73.1168 | SARS-CoV-2 spike driven entry, Mean (0 nM = 100) ([5]; compound 80 nM): 52.0145 | SARS-CoV-2 spike driven entry, Mean (0 nM = 100) ([5]; compound 400 nM): 29.5018 | SARS-CoV-2 spike driven entry, Mean (0 nM = 100) ([5]; compound 2000 nM): 11.0315 | SARS-CoV-2 spike driven entry, Mean (0 nM = 100) ([5]; compound 10000 nM): 3.058 | SARS-CoV-2 spike driven entry, Mean (0 nM = 100) ([5]; compound 50000 nM): 0.6818 | IC50 ([6]; Caco-2 cells, luciferase 2 days post transduction, read-out: IC50 pseudotyped lentivirus Alpha): 98.7 nM | SARS-CoV-2 spike driven entry, Mean (0 nM = 100) ([6]; compound 3.2 nM): 71.733 | SARS-CoV-2 spike driven entry, Mean (0 nM = 100) ([6]; compound 16 nM): 72.519 | SARS-CoV-2 spike driven entry, Mean (0 nM = 100) ([6]; compound 80 nM): 51.5305 | SARS-CoV-2 spike driven entry, Mean (0 nM = 100) ([6]; compound 400 nM): 39.483 | SARS-CoV-2 spike driven entry, Mean (0 nM = 100) ([6]; compound 2000 nM): 18.526 | SARS-CoV-2 spike driven entry, Mean (0 nM = 100) ([6]; compound 10000 nM): 4.853 | SARS-CoV-2 spike driven entry, Mean (0 nM = 100) ([6]; compound 50000 nM): 1.159 | SARS-CoV-2 spike driven entry, Mean (0 nM = 100) [7]: 47.6902 and 69.3145 and 95.2747 | IC50 ([7]; Caco-2 cells, luciferase 2 days post transduction, read-out: IC50 pseudotyped lentivirus Omicron BA.1): 77.6 nM | SARS-CoV-2 spike driven entry, Mean (0 nM = 100) ([7]; Fig. 5e, compound 400 nM, […]): 26.7078 | SARS-CoV-2 spike driven entry, Mean (0 nM = 100) ([7]; Fig. 5e, compound 2000 nM, […]): 11.5722 | SARS-CoV-2 spike driven entry, Mean (0 nM = 100) ([7]; Fig. 5e, compound 10000 nM, […]): 6.102 | SARS-CoV-2 spike driven entry, Mean (0 nM = 100) ([7]; Fig. 5e, compound 50000 nM, […]): 4.574 | IC50 ([8]; read-out: IC50 SARS-CoV-2 Beta): 9310 nM | IC50 ([8]; read-out: IC50 SARS-CoV-2 Beta (text)): 9300 nM | SARS-CoV-2 spike driven entry, Mean (0 nM = 100) [9]: 90.0332 | IC50 ([9]; Caco-2 cells, luciferase 2 days post transduction, read-out: IC50 pseudotyped lentivirus Wuhan-Hu-1): 748 nM and ~748 nM | SARS-CoV-2 spike driven entry, Mean (0 nM = 100) ([9]; Fig. 5a, compound 160 nM, […]): 75.4652 | SARS-CoV-2 spike driven entry, Mean (0 nM = 100) ([9]; Fig. 5a, compound 800 nM, […]): 52.9188 | SARS-CoV-2 spike driven entry, Mean (0 nM = 100) ([9]; Fig. 5a, compound 4000 nM, […]): 17.6822 | SARS-CoV-2 spike driven entry, Mean (0 nM = 100) ([9]; Fig. 5a, compound 20000 nM, […]): 3.857 | SARS-CoV-2 spike driven entry, Mean (0 nM = 100) ([9]; Fig. 5a, compound 100000 nM, […]): 2.478
